Data reported in article PMC10043345, “Discovery of BAR502, as potent steroidal antagonist of leukemia inhibitory factor receptor for the treatment of pancreatic adenocarcinoma” (Frontiers in Oncology, 2023).

Experiments:
human GPBAR1 = target: T1, human GPBAR1 (Homo sapiens, UniProt Q8TDU6); assay: GPBAR1 transactivation (CRE-luciferase) in HEK-293T cells; type: cell-based
T1 construct: expressed in transfected cells; host or cells: HEK-293T
T1 sequence (Q8TDU6 1-330): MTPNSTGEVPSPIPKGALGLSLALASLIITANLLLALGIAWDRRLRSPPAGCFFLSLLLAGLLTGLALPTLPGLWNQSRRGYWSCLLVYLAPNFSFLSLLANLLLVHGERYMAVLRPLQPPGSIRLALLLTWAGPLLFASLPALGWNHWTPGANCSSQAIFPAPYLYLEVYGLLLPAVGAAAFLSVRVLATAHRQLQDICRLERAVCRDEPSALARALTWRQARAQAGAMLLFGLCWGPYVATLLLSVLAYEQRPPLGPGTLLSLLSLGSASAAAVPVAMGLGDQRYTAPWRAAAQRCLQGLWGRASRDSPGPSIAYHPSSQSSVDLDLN

MIA PaCa-2 cells = assay: MTS cell proliferation assay; type: cell-based, human
Description: The cell viability assay was done using the CellTiter 96 Aqueous One Solution Cell Proliferation Assay (Promega, Milano, Italy), a colorimetric method for accessing the number of viable cells in proliferation as described previously ([13]). MIA-PaCa 2 cells were seeded in DMEM complete medium at 36 *10^3 cells/100 uL well into 96-well tissue culture plate. After 24 h, cells were serum starved for 24 h and then were primed with the LIFR major ligand, LIF (10 ng/ml) alone or in combination with BAR502 (5,10 and 20 μM) or only with vehicle. In another experimental setting, MIA-PaCa 2 cells were triggered with PDL103 (10 μM) alone, LIF (10 ng/ml) alone or plus PDL103 or BAR502 (10 μM) or both. In a different setting cell were exposed to an antagonist of the Farnesoid X receptor (FXR), 3-(naphthalen-2-yl)-5-(piperidin-4-yl)-1,2,4-oxadiazole (GP7) (10 µM) ([54]), LIF (10 ng/ml) alone or in combination with GP7 or BAR502 or both. Then cell proliferation assessed as mentioned above. Absorbance was measured using a 96 well reader spectrophotometer (490 nm). In these experiments each experimental setting was replicated ten folds. For analysis the background readings with the medium alone, were subtracted from the samples read-outs.

IC50 (human GPBAR1; Hek293T, transactivation induced by TLCA (10 μM), read-out: Hek293T GPBAR1 Antagonism IC50) [µM]	Compound	EC50 (human GPBAR1; transactivation, agonism, read-out: GPBAR1 EC50 Transact) [µM]	effect on LIF-induced proliferation (MTS) (MIA PaCa-2 cells; LIF 10 ng/mL + BAR502 5, 10, 20 µM, 24 h, serum free)	effect of PDL103 co-treatment on BAR502 action on LIF/LIFR induced proliferation and EMT (MIA PaCa-2 cells; PDL103 10 μM + BAR502 10 μM + LIF 10 ng/ml)
–	CC[C@H]1[C@@H](O)C2C3CC[C@H]([C@H](C)CCO)[C@@]3(C)CCC2[C@@]2(C)CC[C@@H](O)C[C@@H]12 (stereo partly shown) [BAR502]	0.4 ± 0.1	reversed the LIF-proliferative effect in a concentration-dependent manner	–
19	OCc1ccc(-c2ccc(OCc3cc(-c4c(Cl)cccc4Cl)no3)cc2)cc1 [PDL103, (4’-((3-(2,6-dichlorophenyl)isoxazol-5-yl)methoxy)-[1,1’-biphenyl]-4-yl)methanol]	–	–	failed to reverse the effect of BAR502
